In one experiment the target is T1, HCV polymerase (Hepatitis C virus genotype 1b, UniProt Q9WMX2).
T1 construct: (His)6 (C)
In words: biochemical. The note with it: NS5B polymerase IC50 μM, polymerase assay of Biological Example 1.
In the case of `CNC(=O)c1c(-c2ccc(C)cc2)oc2nc(N(CCCCCP(C)(=O)O)S(C)(=O)=O)c(I)cc12` [Example 23.9998, 5-(N-(5-iodo-3-(methylcarbamoyl)-2-p-tolylfuro[2,3-b]pyridin-6-yl)methylsulfonamido)pentyl (methyl)phosphinic acid], half-maximal inhibition (IC50) was put at 0.011 µM.

Still in this experiment, the particulars now being: polymerase assay of Biological Example 1; read-out: NS5B polymerase IC50.
Consider `CNC(=O)c1c(-c2ccc(C)cc2)oc2nc(N(CC(O)CCC(=O)O)S(C)(=O)=O)c(C3CC3)cc12` (centres unmarked) [Example 29.995, 5-(N-(5-cyclopropyl-3-(methylcarbamoyl)-2-p-tolylfuro[2,3-b]pyridin-6-yl)methylsulfonamido)-4-hydroxypentanoic acid], for which the IC50 came to 0.013 µM.

With `C=C[C@@H](CN(c1nc2oc(-c3ccc(F)cc3)c(C(=O)NC)c2cc1C(=C)C)S(C)(=O)=O)OCc1ccccc1` [Example 35, (S)-6-(N-(2-(benzyloxy)but-3-enyl)methylsulfonamido)-2-(4-fluorophenyl)-N-methyl-5-(prop-1-en-2-yl)furo[2,3-b]pyridine-3-carboxamide], the half-maximal inhibitory concentration (IC50) was found to be 6.03 µM.

Turning to `CNC(=O)c1c(-c2ccc(C)cc2)oc2nc(N(CCCC[C@H](COC)C(=O)N[C@H](CO)Cc3ccccc3)S(C)(=O)=O)c(C3CC3)cc12` [Example 47.6, 5-Cyclopropyl-6-(N—((R)-6-((S)-1-hydroxy-3-phenylpropan-2-ylamino)-5-(methoxymethyl)-6-oxohexyl)methylsulfonamido)-N-methyl-2-p-tolylfuro[2,3-b]pyridine-3-carboxamide], the concentration for half-maximal inhibition (IC50) was 0.005 µM.

Consider “6-{[3-(1,1-Dioxo-tetrahydro-1lambdathiophen-2-yl)-propyl]-methanesulfonyl-amino}-5-ethyl-2-(4-fluoro-phenyl)-furo[2,3-b]pyridine-3-carboxylic acid methylamide [Example 22.99]”, for which the concentration for half-maximal inhibition (IC50) came to 0.015 µM.

Consider `CCc1cc2c(C(=O)NC)c(-c3ccc(F)cc3)oc2nc1N(C(C)C)S(C)(=O)=O` [Example 22.993, 5-ethyl-2-(4-fluorophenyl)-6-(N-isopropylmethylsulfonamido)-N-methylfuro[2,3-b]pyridine-3-carboxamide], for which the IC50 worked out at 1.06 µM.

`CCc1ccc(-c2oc3nc(N(CCCC4(C(=O)O)CC4)S(C)(=O)=O)c(C4CC4)cc3c2C(=O)NC)cc1` [Example 29.9993, 1-(3-(N-(5-cyclopropyl-2-(4-ethylphenyl)-3-(methylcarbamoyl)furo[2,3-b]pyridin-6-yl)methylsulfonamido)propyl) cyclopropanecarboxylic acid]: the IC50 stood at 0.002 µM.

For the compound `CCc1ccc(-c2oc3nc(N(CCCC(C)(OC)C(=O)O)S(C)(=O)=O)c(C4CC4)cc3c2C(=O)NC)cc1` (centres unmarked) [Example 29.9991, 5-(N-(5-cyclopropyl-2-(4-ethylphenyl)-3-(methylcarbamoyl)furo[2,3-b]pyridin-6-yl)methylsulfonamido)-2-methoxy-2-methylpentanoic acid], the IC50 was 0.003 µM.

In the case of `CNC(=O)c1c(-c2ccc(F)cc2)oc2nc(N(CCCC(C)O)S(C)(=O)=O)c(I)cc12` (centres unmarked) [Example 18.998, 2-(4-fluorophenyl)-6-(N-(4-hydroxypentyl)methylsulfonamido)-5-iodo-N-methylfuro[2,3-b]pyridine-3-carboxamide], the IC50 came out at 0.039 µM.

For `CNC(=O)c1c(-c2ccc(C(F)(F)F)cc2)oc2nc(N(C)S(C)(=O)=O)c(I)cc12` [Example 2.91, 5-iodo-N-methyl-6-(N-methylmethylsulfonamide)-2-(4-(trifluoromethyl)phenyl)furo[2,3-b]pyridine-3-carboxamide], the half-inhibitory concentration (IC50) worked out at 0.802 µM.

For the compound `CNC(=O)c1c(-c2ccc(C)cc2)oc2nc(N(CCC[C@H](C)C(=O)O)S(C)(=O)=O)c(C3CC3)cc12` [Example 47, (S)-5-(N-(5-cyclopropyl-3-(methylcarbamoyl)-2-p-tolylfuro[2,3-b]pyridin-6-yl)methylsulfonamido)-2-methylpentanoic acid], the 50% inhibitory concentration (IC50) was 0.002 µM.

In the case of `CNC(=O)c1c(-c2ccc(F)cc2)oc2nc3c(cc12)CCCCN(S(C)(=O)=O)CCCN3S(C)(=O)=O` [Example 36.5, 2-(4-Fluoro-phenyl)-9,13-bis-methanesulfonyl-6,7,8,9,10,11,12,13-octahydro-5H-1-oxa-9,13,14-triaza-cycloundeca[f]indene-3-carboxylic acid methylamide], the half-maximal inhibitory concentration (IC50) amounted to 0.474 µM.

Turning to `CNC(=O)c1c(-c2ccc(Oc3ccccc3F)cc2)oc2nc(N(CCCCC(=O)O)S(C)(=O)=O)c(C3CC3)cc12` [Example 27.3, 5-(N-(5-cyclopropyl-2-(4-(2-fluorophenoxy)phenyl)-3-(methylcarbamoyl)furo[2,3-b]pyridin-6-yl)methylsulfonamido) pentanoic acid], the concentration for half-maximal inhibition (IC50) worked out at 0.023 µM.

For the compound `CNC(=O)c1c(-c2ccc(C)cc2)oc2nc(N(CCCC(C)(COC)C(=O)O)S(C)(=O)=O)c(C3CC3)cc12` (centres unmarked) [Example 43.1, 5-(N-(5-cyclopropyl-3-(methylcarbamoyl)-2-p-tolylfuro[2,3-b]pyridin-6-yl)methylsulfonamido)-2-(methoxymethyl)-2-methylpentanoic acid], the IC50 was 0.002 µM.

On to `CNC(=O)c1c(-c2ccc(C)cc2)oc2nc(N(CCCCCN)S(C)(=O)=O)c(C3CC3)cc12` [Example 23.999994, 6-(N-(5-aminopentyl)methylsulfonamido)-5-cyclopropyl-N-methyl-2-p-tolylfuro[2,3-b]pyridine-3-carboxamide], for which the IC50 was 0.014 µM.

Regarding `CNC(=O)c1c(-c2ccc(F)cc2)oc2nc(N(C)S(C)(=O)=O)c(CCCCC(N)=O)cc12` [Example 4.95, 5-(5-amino-5-oxopentyl)-2-(4-fluorophenyl)-N-methyl-6-(N-methylmethylsulfonamido)furo[2,3-b]pyridine-3-carboxamide], the IC50 came out at 0.016 µM.

With `CNC(=O)c1c(-c2ccc(C)cc2)oc2nc(N(CCCCO)S(C)(=O)=O)c(I)cc12` [Example 23.9996, 6-(N-(4-hydroxybutyl)methylsulfonamido)-5-iodo-N-methyl-2-p-tolylfuro[2,3-b]pyridine-3-carboxamide], the half-inhibitory concentration (IC50) is 0.019 µM.

With `CNC(=O)c1c(-c2ccc(F)cc2)oc2nc(N(C)S(C)(=O)=O)c(/C=C/C#N)cc12` [Example 13, (E)-5-(2-cyanovinyl)-2-(4-fluorophenyl)-N-methyl-6-(N-methylmethylsulfonamido)furo[2,3-b]pyridine-3-carboxamide], the half-maximal inhibitory concentration (IC50) came to 0.273 µM.

`CNC(=O)c1c(-c2ccc(F)cc2)oc2nc(N(C)S(C)(=O)=O)c(C(C)O)cc12` (centres unmarked) [Example 11, 2-(4-fluorophenyl)-5-(1-hydroxyethyl)-N-methyl-6-(N-methylmethylsulfonamido)furo[2,3-b]pyridine-3-carboxamide]: the IC50 came out at 0.825 µM.

As for `CCc1cc2c(C(=O)NC)c(-c3ccc(F)cc3)oc2nc1N(CCCN1CCCC1=O)S(C)(=O)=O` [Example 22.996, 5-ethyl-2-(4-fluorophenyl)-N-methyl-6-(N-(3-(2-oxopyrrolidin-1-yl)propyl)methylsulfonamido)furo[2,3-b]pyridine-3-carboxamide], the IC50 was 0.059 µM.

Take `CNC(=O)c1c(-c2ccc(C)c(C)c2)oc2nc(N(CCCCC(=O)O)S(C)(=O)=O)c(C3CC3)cc12` [Example 29.999998, 5-(N-(5-cyclopropyl-2-(3,4-dimethylphenyl)-3-(methylcarbamoyl)furo[2,3-b]pyridin-6-yl)methylsulfonamido) pentanoic acid]: the IC50 was determined as 0.004 µM.

For `CCc1cc2c(C(=O)NC)c(-c3ccc(F)cc3)oc2nc1N(CCN1CCSCC1)S(C)(=O)=O` [Example 22.3, 5-ethyl-2-(4-fluorophenyl)-N-methyl-6-(N-(2-thiomorpholinoethyl)methylsulfonamido)furo[2,3-b]pyridine-3-carboxamide], the IC50 came out at 0.089 µM.

`CCc1ccc(-c2oc3nc(N(CCCC4(C(=O)O)CCC4)S(C)(=O)=O)c(C4CC4)cc3c2C(=O)NC)cc1` [Example 29.91, 1-(3-(N-(5-cyclopropyl-2-(4-ethylphenyl)-3-(methylcarbamoyl)furo[2,3-b]pyridin-6-yl)methylsulfonamido)propyl) cyclobutanecarboxylic acid]: the IC50 came to 0.002 µM.

For the compound `CNC(=O)c1c(-c2ccc(Cl)cc2)oc2nc(N(CCCS(C)(=O)=O)S(C)(=O)=O)c(I)cc12` [Example 18.991, 2-(4-chlorophenyl)-5-iodo-N-methyl-6-(N-(3-(methylsulfonyl)propyl)methylsulfonamido)furo[2,3-b]pyridine-3-carboxamide], the IC50 was determined as 0.029 µM.

For `CNC(=O)c1c(-c2ccc(C)cc2)oc2nc(N(CCCC(CC#N)C(=O)OC)S(C)(=O)=O)c(C3CC3)cc12` (centres unmarked) [Example 29.9998, methyl 2-(cyanomethyl)-5-(N-(5-cyclopropyl-3-(metfiylcarbamoyl)-2-p-tolylfuro[2,3-b]pyridin-6-yl)methylsulfonamido) pentanoate], the IC50 worked out at 0.005 µM.

Regarding `CNC(=O)c1c(-c2ccc(C)cc2)oc2nc(N(CCCC3(C(=O)O)CCN(C)CC3)S(C)(=O)=O)c(C3CC3)cc12` [Example 29.99993, 4-(3-(N-(5-cyclopropyl-3-(methylcarbamoyl)-2-p-tolylfuro[2,3-b]pyridin-6-yl)methylsulfonamido)propyl)-1-methylpiperidine-4-carboxylic acid], the IC50 is 0.003 µM.

As to `CNC(=O)c1c(-c2ccc(C)cc2)oc2nc(N(CCOCCC(CCOC)C(=O)O)S(C)(=O)=O)c(C3CC3)cc12` (centres unmarked) [Example 23.999999, 4-{2-[(5-Cyclopropyl-3-methylcarbamoyl-2-p-tolyl-furo[2,3-b]pyridin-6-yl)-methanesulfonyl-amino]-ethoxy}-2-(2-methoxy-ethyl)-butyric acid], the IC50 was found to be 0.02 µM.

Take `CNC(=O)c1c(-c2ccc(C)cc2)oc2nc(N(CCCC(=O)O)S(C)(=O)=O)c(C3CC3)cc12` [Example 28.9, 4-(N-(5-cyclopropyl-3-(methylcarbamoyl)-2-p-tolylfuro[2,3-b]pyridin-6-yl)methylsulfonamido) butanoic acid]: the 50% inhibitory concentration (IC50) is 0.002 µM.

Turning to `CNC(=O)c1c(-c2ccc(C)cc2)oc2nc(N(CCCCC#N)S(C)(=O)=O)c(C3CC3)cc12` [Example 29.6, 6-(N-(4-cyanobutyl)methylsulfonamido)-5-cyclopropyl-N-methyl-2-p-tolylfuro[2,3-b]pyridine-3-carboxamide], the IC50 was found to be 0.002 µM.

For the origin of these results see patent US20120015907A1, “Furopyridine compounds and uses thereof” (NOVARTIS AG, priority 2010, published 2012).
